Reference: PMC4717870, “Evaluation of fluoropyruvate as nucleophile in reactions catalysed by N-acetyl neuraminic acid lyase variants: scope, limitations and stereoselectivity” (Organic & Biomolecular Chemistry, 2015)

Target: T1, S. aureus NAL (Staphylococcus aureus, UniProt Q2G160)
T1 construct: gene nanA; crystal structure
Assay: X-ray crystal structure of the complex
Assay type: binding
Conditions: covalent; Z-configured enamine observed in the active site

T1 sequence (Q2G160 whole entry): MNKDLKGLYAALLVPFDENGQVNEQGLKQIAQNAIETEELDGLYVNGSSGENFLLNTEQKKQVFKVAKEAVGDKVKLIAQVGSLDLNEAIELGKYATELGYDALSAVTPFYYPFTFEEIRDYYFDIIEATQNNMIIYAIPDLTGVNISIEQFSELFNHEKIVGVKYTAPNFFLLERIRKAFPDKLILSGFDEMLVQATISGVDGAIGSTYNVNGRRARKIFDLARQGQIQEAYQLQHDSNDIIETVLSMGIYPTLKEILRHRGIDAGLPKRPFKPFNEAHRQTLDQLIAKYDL

## O=C(O)C(=O)CF [fluoropyruvate]
  X-ray crystal structure of the complex: the crystal structure of S. aureus NAL was determined in complex with fluoropyruvate
